Experimental data from patent US20010011082A1, “Parenteral bisphosphonate composition with improved local tolerance” (priority 2000, published 2001).

Key:
[1] = rat, in vivo, pH 7.4
Procedure: (§1) Groups of 3 rats were treated with test formulations containing 1 mg ibandronate/ml physiological saline buffered at pH 7.4. One group of rats received the test formulation without any additional additive, another group received the test solution with 1 mg EDTA/ml as an additive. The back of the rat was shaved one day before treatment. A volume of 0.5 ml each was injected subcutaneously at three different sites of the right part of shaved back. The left side of the back was treated with the corresponding formulation without ibandronate (placebo). Local reactions were assessed by a scoring system for swelling: 0=no reaction, 0.5=barely perceptible swelling, 1=slight swelling, 2=moderate swelling, 3=marked swelling, 4=severe swelling. The animals were observed over 9 days and thereafter necropsied. At necropsy, the diameter of subcutaneous lesions, mainly consisting of reddening or swelling, was measured.
(§2) The same study design as described in example 1 was applied to examine the concentration dependence of the EDTA effect. EDTA was added at concentrations of 0.1, 1.0 and 10 mg/ml.
(§3) DTPA was added at a concentration of 10 mg/ml.
(§4) The same study design as described in example 1 was applied to examine the efficacy of EDTA on local reaction to s.c. injected alendronate. The test formulations contained 3 mg alendronate/ml physiological saline buffered at pH 7.4. EDTA was added at a concentration of 10 mg/ml.

[2] = Local tolerance test: s.c. injection of bisphosphonate solution pH 7.4 with and without chelating agent, swelling score and diameter of subcutaneous lesions at necropsy; conditions: for adverse local reaction at the application sites: additional bivalent cation chelator in bisphosphonate formulation, compared with corresponding formulation without chelator; for severity of subcutaneous findings at necropsy / intensity and duration of local swelling at the injection site: chelating agent in injectable formulations of alendronate or ibandronate; for severity of subcutaneous findings at necropsy: necropsy after 9 days; for intensity and duration of local swelling at the injection site: observed over 9 days
Procedure: as §1, §2, §3, §4

SMILES | improving effect of EDTA on local tolerance (dose dependence) [1] | effect on local adverse reactions at lowest ratio ([2]; 1 mg ibandronate/ml pH 7.4, molar ibandronate to EDTA ratio 1:0.1 (EDTA 0.1 mg/ml)) | local adverse reactions at highest ratio ([2]; 1 mg ibandronate/ml pH 7.4, molar ibandronate to EDTA ratio 1:10 (EDTA 10 mg/ml)) | effect of EDTA on alendronate induced local reaction ([2]; 3 mg alendronate/ml physiological saline pH 7.4, EDTA 10 mg/ml, s.c.) | adverse local reaction at the application sites [2] | severity of subcutaneous findings at necropsy ([2]; s.c.) | intensity and duration of local swelling at the injection site ([2]; s.c.) | efficacy of DTPA as chelating agent on local reaction ([2]; 1 mg ibandronate/ml pH 7.4, DTPA 10 mg/ml, s.c.)
O=C(O)CN(CCN(CC(=O)O)CC(=O)O)CC(=O)O [EDTA, ethylenediaminetetraacetic acid] | dose-related | still some beneficial effect | still not completely abolished | could also be demonstrated | substantially improved | reduces | reduces | –
O=C(O)CN(CCN(CC(=O)O)CC(=O)O)CCN(CC(=O)O)CC(=O)O [DTPA, diethylenetriaminepentaacetic acid] | – | – | – | – | substantially improved | reduces | reduces | could also be demonstrated
